Source: patent US6515000B2, “Fungicidal mixtures based on amide compounds” (BASF Aktiengesellschaft, priority 2000, dated 2003)

Legend:
[1] = tested on: mildew of cucumber (Sphaerotheca fuliginea); experiment: Action against mildew of cucumber (protective spray, cucumber seedlings cv. Chinesische Schlange); type: in vivo; details: individual active ingredient, 7 days
Experimental: (§1) The active compounds, separately or together, are formulated as a 10% emulsion in a mixture of 70% by weight of cyclohexanone, 20% by weight of Nekanil® LN (Lutensol® AP6, wetting agent having emulsifying and dispersing action based on ethoxylated alkylphenols) and 10% by weight of Emulphor® EL (Emulan® EL, emulsifier based on ethoxylated fatty alcohols) and diluted with water to the desired concentration.
(§2) Evaluation is carried out by determining the infected leaf areas in percent. These percentages are converted into efficacies. The efficacy (W) is calculated as follows using Abbot's formula: […]
The expected efficacies of the mixtures of the active compounds were determined using Colby's formula [R. S. Colby, Weeds 15, 20-22 (1967)] and compared with the observed efficacies. […]
Leaves of cucumber seedlings of the cultivar “Chinesische Schlange” which had been grown in pots were, at the cotyledon stage, sprayed to run-off point with an aqueous preparation of active ingredient which had been prepared using a stock solution made of 10% active ingredient, 85% of cyclohexanone and 5% of emulsifier. […] The extent of the mildew development was then determined visually in % infection of the cotyledon surface. […]

[2] = tested on: mildew of wheat (Blumeria graminis forma specialis tritici); experiment: Action against mildew of wheat (protective spray, wheat seedlings cv. Kanzler); type: in vivo; details: individual active ingredient, 7 days after inoculation
Experimental: as §1, §2
α corresponds to the fungal infection of the treated plants in % and β corresponds to the fungal infection of the untreated (control) plants in % An efficacy of 0 means that the infection level of the treated plants corresponds to that of the untreated control plants; an efficacy of 100 means that the treated plants were not infected.
The expected efficacies of the mixtures of the active compounds were determined using Colby's formula [R. S. Colby, Weeds 15, 20-22 (1967)] and compared with the observed efficacies.
Colby's formula: E×x+y−x·y/100
E expected efficacy, expressed in % of the untreated control, when using the mixture of the active compounds A and B at the concentrations a and b x efficacy, expressed in % of the untreated control, when using active compound A at the concentration a y efficacy, expressed in % of the untreated control, when using active compound B at the concentration b.
Leaves of wheat seedlings of the cultivar “Kanzler”, grown in pots, were sprayed to run-off point with an aqueous formulation of active ingredient which had been prepared using a stock solution comprising 10% of active ingredient, 85% of cyclohexanone and 5% of emulsifier, and 24 hours after the spray coating had dried on, the leaves were dusted with spores of mildew of wheat (Blumeria graminis forma specialis tritici). […] After 7 days, the extent of the development of the mildew was determined visually in % infection of the entire leaf surface. […]

For dinocap [dinocap (II)], the “Efficacy in % of the untreated control” value ([1]; 6 ppm in the spray liquor) was 10%, the “Efficacy in % of the untreated control” value ([1]; 12.5 ppm in the spray liquor) was 20% and the “Efficacy in % of the untreated control” value ([2]; 6 ppm in the spray liquor) was 10%. For the same substance, the “Efficacy in % of the untreated control” value ([2]; 12.5 ppm in the spray liquor) was 10% and the “Efficacy in % of the untreated control” value ([2]; 50 ppm in the spray liquor) was 70%.
